# Results as given in PMC9898036, “VIP152 is a selective CDK9 inhibitor with pre-clinical in vitro and in vivo efficacy in chronic lymphocytic leukemia” (Leukemia, 2022).
# How the values were obtained:
# Type in all cases: binding
# FES = FES (Homo sapiens, UniProt P07332); experiment: KINOMEscan: FES; conditions: 1000 nM, read-out: Percent Control
# [1] = test system: Glutamate, NMDA, Phencyclidine; experiment: Eurofins Diversity Panel; conditions: rat, Conc. 10 μM
# Phorbol Ester = experiment: Eurofins Diversity Panel; conditions: mouse, Conc. 10 μM
# MAP3K3 = MAP3K3 (Homo sapiens, UniProt Q99759); experiment: KINOMEscan: MAP3K3; conditions: 1000 nM, read-out: Percent Control
# Glutamate, Kainate = experiment: Eurofins Diversity Panel; conditions: rat, Conc. 10 μM
# SBK1 = SBK1 (Homo sapiens, UniProt Q52WX2); experiment: KINOMEscan: SBK1; conditions: 100 nM, read-out: Percent Control
# FAK = FAK (Homo sapiens, UniProt Q05397); experiment: KINOMEscan: FAK; conditions: 1000 nM, read-out: Percent Control
# [2] = biological target: RSK2(Kin.Dom.1-N-terminal) (Homo sapiens, UniProt P51812); experiment: KINOMEscan: RSK2(Kin.Dom.1-N-terminal); conditions: 100 nM, read-out: Percent Control
# IRAK4 = IRAK4 (Homo sapiens, UniProt Q9NWZ3); experiment: KINOMEscan: IRAK4; conditions: 1000 nM, read-out: Percent Control
# MST3 = MST3 (Homo sapiens, UniProt Q9Y6E0); experiment: KINOMEscan: MST3; conditions: 1000 nM, read-out: Percent Control
# FGFR3 = FGFR3 (Homo sapiens, UniProt P22607); experiment: KINOMEscan: FGFR3; conditions: 1000 nM, read-out: Percent Control
# EGFR(L861Q) = EGFR(L861Q) (Homo sapiens, UniProt P00533, L861Q); experiment: KINOMEscan: EGFR(L861Q); conditions: 1000 nM, read-out: Percent Control
# DMPK = DMPK (Homo sapiens, UniProt Q09013); experiment: KINOMEscan: DMPK; conditions: 1000 nM, read-out: Percent Control
# Glutamate, NMDA, Glycine = Glutamate, NMDA, Glycine (Rattus norvegicus, UniProt P35439); experiment: Eurofins Diversity Panel; conditions: Conc. 10 μM
# Chain of Glutamate, NMDA, Glycine (P35439 394-800 limits assumed): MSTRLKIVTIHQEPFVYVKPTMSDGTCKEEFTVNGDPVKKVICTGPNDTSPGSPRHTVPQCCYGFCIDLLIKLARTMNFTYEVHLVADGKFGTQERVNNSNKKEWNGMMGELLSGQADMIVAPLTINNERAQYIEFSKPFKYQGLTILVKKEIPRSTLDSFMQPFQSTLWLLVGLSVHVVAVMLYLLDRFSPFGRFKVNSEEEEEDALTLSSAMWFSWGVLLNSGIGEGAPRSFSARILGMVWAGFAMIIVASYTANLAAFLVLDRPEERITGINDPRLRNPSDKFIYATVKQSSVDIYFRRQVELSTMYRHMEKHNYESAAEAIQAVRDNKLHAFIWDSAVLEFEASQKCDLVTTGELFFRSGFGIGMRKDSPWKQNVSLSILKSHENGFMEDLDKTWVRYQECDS
# VRK2 = VRK2 (Homo sapiens, UniProt Q86Y07); experiment: KINOMEscan: VRK2; conditions: 100 nM, read-out: Percent Control
# Chain of VRK2 (Q86Y07 whole entry): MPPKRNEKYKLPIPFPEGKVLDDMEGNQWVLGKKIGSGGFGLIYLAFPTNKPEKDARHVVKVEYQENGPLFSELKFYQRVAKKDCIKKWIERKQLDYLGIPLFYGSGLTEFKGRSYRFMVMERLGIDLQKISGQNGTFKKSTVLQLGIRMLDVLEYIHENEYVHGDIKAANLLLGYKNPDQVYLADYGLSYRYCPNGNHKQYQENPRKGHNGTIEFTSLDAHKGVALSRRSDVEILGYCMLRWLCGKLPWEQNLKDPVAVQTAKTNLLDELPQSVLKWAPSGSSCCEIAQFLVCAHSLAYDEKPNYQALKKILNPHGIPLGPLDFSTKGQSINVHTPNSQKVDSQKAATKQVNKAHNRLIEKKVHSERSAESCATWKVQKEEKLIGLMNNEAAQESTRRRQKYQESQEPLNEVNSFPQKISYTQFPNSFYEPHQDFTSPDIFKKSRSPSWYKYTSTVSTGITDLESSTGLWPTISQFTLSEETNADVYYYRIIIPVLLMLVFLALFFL
# ALK(C1156Y) = ALK(C1156Y) (Homo sapiens, UniProt Q9UM73, C1156Y); experiment: KINOMEscan: ALK(C1156Y); conditions: 1000 nM, read-out: Percent Control
# MKK7 = MKK7 (Homo sapiens, UniProt O14733); experiment: KINOMEscan: MKK7; conditions: 1000 nM, read-out: Percent Control
# CDC2L2 = CDC2L2 (Homo sapiens, UniProt Q9UQ88); experiment: KINOMEscan: CDC2L2; conditions: 1000 nM, read-out: Percent Control
# JNK1 = JNK1 (Homo sapiens, UniProt P45983); experiment: KINOMEscan: JNK1; conditions: 1000 nM, read-out: Percent Control
# Chain of JNK1 (P45983 whole entry): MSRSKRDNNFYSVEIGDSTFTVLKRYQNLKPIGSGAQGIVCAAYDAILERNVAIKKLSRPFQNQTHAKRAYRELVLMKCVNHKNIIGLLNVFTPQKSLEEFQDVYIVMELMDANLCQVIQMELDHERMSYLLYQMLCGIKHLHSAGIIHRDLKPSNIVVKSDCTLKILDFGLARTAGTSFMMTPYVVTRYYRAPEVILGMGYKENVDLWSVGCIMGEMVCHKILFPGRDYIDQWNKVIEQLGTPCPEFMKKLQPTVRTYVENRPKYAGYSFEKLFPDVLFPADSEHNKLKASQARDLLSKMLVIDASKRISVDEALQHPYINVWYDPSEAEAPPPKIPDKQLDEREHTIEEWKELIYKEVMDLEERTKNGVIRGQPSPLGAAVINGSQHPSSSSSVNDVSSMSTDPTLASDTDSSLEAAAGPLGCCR
# [3] = biological target: Serotonin (5-Hydroxytryptamine) 5-HT1A) (Homo sapiens, UniProt P08908); experiment: Eurofins Diversity Panel; conditions: hum, Conc. 10 μM
# [4] = biological target: Nicotinic Acetylcholine α1, Bungarotoxin (Homo sapiens, UniProt P02708+P07510+Q07001); experiment: Eurofins Diversity Panel; conditions: read-out: % Inh.
# GRK3 = GRK3 (Homo sapiens, UniProt P35626); experiment: KINOMEscan: GRK3; conditions: 1000 nM, read-out: Percent Control
# Chain of GRK3 (P35626 whole entry): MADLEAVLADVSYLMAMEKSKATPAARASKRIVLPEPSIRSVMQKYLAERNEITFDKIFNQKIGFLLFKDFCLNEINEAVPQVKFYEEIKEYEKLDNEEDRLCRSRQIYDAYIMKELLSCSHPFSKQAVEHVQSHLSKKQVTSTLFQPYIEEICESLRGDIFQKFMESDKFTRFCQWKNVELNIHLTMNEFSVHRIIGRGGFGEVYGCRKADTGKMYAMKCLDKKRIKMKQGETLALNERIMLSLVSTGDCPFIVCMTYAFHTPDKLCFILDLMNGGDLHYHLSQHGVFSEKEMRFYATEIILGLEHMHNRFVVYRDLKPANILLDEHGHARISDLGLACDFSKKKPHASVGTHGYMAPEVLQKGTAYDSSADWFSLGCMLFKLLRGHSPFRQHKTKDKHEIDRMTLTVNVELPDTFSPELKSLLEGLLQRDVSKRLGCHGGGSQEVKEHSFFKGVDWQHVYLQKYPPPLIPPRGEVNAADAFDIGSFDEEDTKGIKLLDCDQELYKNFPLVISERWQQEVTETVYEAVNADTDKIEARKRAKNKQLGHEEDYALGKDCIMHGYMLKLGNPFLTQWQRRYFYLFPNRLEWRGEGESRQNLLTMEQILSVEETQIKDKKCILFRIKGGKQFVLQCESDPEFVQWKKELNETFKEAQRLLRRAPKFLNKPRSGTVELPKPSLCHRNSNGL
# ERK3 = ERK3 (Homo sapiens, UniProt Q16659); experiment: KINOMEscan: ERK3; conditions: 1000 nM, read-out: Percent Control
# Chain of ERK3 (Q16659 whole entry): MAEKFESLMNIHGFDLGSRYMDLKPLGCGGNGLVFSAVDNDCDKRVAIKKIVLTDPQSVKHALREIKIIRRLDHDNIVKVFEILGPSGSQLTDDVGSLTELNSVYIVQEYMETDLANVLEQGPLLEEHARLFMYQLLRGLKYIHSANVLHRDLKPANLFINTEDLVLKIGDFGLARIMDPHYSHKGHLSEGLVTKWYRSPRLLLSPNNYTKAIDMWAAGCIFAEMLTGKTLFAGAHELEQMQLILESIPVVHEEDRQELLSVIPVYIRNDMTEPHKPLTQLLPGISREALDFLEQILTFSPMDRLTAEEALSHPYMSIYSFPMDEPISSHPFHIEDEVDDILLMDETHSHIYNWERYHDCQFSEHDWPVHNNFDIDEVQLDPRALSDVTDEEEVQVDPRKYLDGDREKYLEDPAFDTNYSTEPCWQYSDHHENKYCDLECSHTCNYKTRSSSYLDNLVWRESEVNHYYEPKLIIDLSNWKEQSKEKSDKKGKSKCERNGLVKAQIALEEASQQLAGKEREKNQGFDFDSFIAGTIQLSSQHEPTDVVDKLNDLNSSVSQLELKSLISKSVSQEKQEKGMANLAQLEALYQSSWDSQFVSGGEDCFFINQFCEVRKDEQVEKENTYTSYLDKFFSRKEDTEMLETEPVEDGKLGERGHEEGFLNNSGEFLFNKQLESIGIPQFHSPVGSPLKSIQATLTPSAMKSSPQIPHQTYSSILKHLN
# [5] = biological target: RSK3(Kin.Dom.1-N-terminal) (Homo sapiens, UniProt Q15349); experiment: KINOMEscan: RSK3(Kin.Dom.1-N-terminal); conditions: 100 nM, read-out: Percent Control
# Chain of RSK3(Kin.Dom.1-N-terminal) (Q15349 1-388 limits assumed): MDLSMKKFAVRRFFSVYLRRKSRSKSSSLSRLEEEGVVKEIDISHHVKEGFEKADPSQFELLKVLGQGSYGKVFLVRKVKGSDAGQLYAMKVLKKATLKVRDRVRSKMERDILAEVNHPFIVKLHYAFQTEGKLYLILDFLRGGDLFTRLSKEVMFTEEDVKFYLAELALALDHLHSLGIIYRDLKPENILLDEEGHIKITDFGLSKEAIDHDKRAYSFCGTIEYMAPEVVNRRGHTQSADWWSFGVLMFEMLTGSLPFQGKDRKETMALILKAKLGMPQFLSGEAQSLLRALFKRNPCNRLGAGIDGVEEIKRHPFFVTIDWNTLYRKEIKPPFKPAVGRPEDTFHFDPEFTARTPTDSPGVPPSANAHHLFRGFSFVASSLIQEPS
# SLK = SLK (Homo sapiens, UniProt Q9H2G2); experiment: KINOMEscan: SLK; conditions: 100 nM, read-out: Percent Control
# MEK5 = MEK5 (Homo sapiens, UniProt Q13163); experiment: KINOMEscan: MEK5; conditions: 1000 nM, read-out: Percent Control
# Chain of MEK5 (Q13163 whole entry): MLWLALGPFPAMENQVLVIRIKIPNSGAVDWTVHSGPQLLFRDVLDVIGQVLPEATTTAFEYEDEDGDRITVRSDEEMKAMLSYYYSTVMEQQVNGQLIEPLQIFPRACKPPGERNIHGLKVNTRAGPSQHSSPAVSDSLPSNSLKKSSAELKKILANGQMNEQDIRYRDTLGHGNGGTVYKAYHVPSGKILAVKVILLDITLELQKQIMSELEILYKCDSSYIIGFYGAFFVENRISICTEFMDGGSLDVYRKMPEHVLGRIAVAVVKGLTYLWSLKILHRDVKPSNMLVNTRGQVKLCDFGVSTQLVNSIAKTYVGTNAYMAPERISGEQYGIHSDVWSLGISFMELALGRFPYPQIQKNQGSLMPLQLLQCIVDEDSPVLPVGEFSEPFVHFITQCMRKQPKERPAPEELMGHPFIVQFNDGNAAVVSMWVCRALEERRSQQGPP
# TAOK3 = TAOK3 (Homo sapiens, UniProt Q9H2K8); experiment: KINOMEscan: TAOK3; conditions: 100 nM, read-out: Percent Control
# ACVR1 = ACVR1 (Homo sapiens, UniProt Q04771); experiment: KINOMEscan: ACVR1; conditions: 1000 nM, read-out: Percent Control
# ULK1 = ULK1 (Homo sapiens, UniProt O75385); experiment: KINOMEscan: ULK1; conditions: 100 nM, read-out: Percent Control
# LKB1 = LKB1 (Homo sapiens, UniProt Q15831); experiment: KINOMEscan: LKB1; conditions: 1000 nM, read-out: Percent Control
# ACVR2B = ACVR2B (Homo sapiens, UniProt Q13705); experiment: KINOMEscan: ACVR2B; conditions: 1000 nM, read-out: Percent Control
# FLT3(N841I) = FLT3(N841I) (Homo sapiens, UniProt P36888, N841I); experiment: KINOMEscan: FLT3(N841I); conditions: 1000 nM, read-out: Percent Control
# DAPK2 = DAPK2 (Homo sapiens, UniProt Q9UIK4); experiment: KINOMEscan: DAPK2; conditions: 1000 nM, read-out: Percent Control
# Chain of DAPK2 (Q9UIK4 whole entry): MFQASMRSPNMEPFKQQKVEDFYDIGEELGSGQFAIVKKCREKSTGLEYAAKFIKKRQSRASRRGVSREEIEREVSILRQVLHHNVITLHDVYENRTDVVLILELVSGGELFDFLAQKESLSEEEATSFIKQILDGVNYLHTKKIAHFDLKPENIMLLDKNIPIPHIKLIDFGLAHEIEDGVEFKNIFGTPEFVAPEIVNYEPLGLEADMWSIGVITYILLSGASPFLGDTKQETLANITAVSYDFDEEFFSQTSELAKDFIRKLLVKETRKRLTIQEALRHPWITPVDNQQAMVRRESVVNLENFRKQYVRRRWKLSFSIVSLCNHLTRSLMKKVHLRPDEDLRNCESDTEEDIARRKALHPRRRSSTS
# SRPK3 = SRPK3 (Homo sapiens, UniProt Q9UPE1); experiment: KINOMEscan: SRPK3; conditions: 100 nM, read-out: Percent Control
# [6] = biological target: Serotonin (5-Hydroxytryptamine) 5-HT2B) (Homo sapiens, UniProt P41595); experiment: Eurofins Diversity Panel; conditions: hum, Conc. 10 μM
# CAMK1 = CAMK1 (Homo sapiens, UniProt Q14012); experiment: KINOMEscan: CAMK1; conditions: 1000 nM, read-out: Percent Control
# [7] = biological target: RSK1(Kin.Dom.1-N-terminal) (Homo sapiens, UniProt Q15418); experiment: KINOMEscan: RSK1(Kin.Dom.1-N-terminal); conditions: 100 nM, read-out: Percent Control
# ADCK3 = ADCK3 (Homo sapiens, UniProt Q8NI60); experiment: KINOMEscan: ADCK3; conditions: 1000 nM, read-out: Percent Control
# FGFR2 = FGFR2 (Homo sapiens, UniProt P21802); experiment: KINOMEscan: FGFR2; conditions: 1000 nM, read-out: Percent Control
# HPK1 = HPK1 (Homo sapiens, UniProt Q92918); experiment: KINOMEscan: HPK1; conditions: 1000 nM, read-out: Percent Control
# Cannabinoid CB1 = Cannabinoid CB1 (Homo sapiens, UniProt P21554); experiment: Eurofins Diversity Panel; conditions: hum, Conc. 10 μM
# Chain of FES (P07332 whole entry): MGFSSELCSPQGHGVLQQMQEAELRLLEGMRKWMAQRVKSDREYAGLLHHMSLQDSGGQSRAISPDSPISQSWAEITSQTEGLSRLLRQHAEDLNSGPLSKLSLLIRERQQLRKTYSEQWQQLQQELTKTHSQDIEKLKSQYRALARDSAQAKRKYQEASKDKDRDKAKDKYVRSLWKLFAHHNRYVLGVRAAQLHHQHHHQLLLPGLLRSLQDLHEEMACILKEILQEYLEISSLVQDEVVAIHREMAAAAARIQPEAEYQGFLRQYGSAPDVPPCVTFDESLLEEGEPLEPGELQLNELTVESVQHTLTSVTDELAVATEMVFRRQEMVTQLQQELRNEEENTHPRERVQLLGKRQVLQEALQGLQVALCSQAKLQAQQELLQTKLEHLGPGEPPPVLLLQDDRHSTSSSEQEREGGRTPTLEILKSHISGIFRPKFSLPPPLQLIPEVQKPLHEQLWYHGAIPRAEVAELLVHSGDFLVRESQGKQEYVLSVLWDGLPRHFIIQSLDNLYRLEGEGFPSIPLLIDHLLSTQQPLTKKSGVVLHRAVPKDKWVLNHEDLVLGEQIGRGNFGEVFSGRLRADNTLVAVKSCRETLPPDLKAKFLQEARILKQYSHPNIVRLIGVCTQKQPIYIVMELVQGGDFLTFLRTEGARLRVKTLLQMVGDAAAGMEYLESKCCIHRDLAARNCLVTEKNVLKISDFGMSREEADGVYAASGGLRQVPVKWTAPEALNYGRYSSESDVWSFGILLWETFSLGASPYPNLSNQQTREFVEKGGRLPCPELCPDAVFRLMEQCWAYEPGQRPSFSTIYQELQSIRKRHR
compound,measurement,setting,value
COc1cc(F)ccc1-c1cc(Nc2cc(CS(C)(=N)=O)ccn2)ncc1F (centres unmarked) [VIP152],remaining binding at 1 µM,FES,87%
same,% Inh.,[1],5%
same,% Inh.,Phorbol Ester,8%
same,remaining binding at 1 µM,MAP3K3,86%
same,% Inh.,"Glutamate, Kainate",13%
same,remaining binding at 0.1 µM,SBK1,95%
same,remaining binding at 1 µM,FAK,83%
same,remaining binding at 0.1 µM,[2],100%
same,remaining binding at 1 µM,IRAK4,78%
same,remaining binding at 1 µM,MST3,94%
same,remaining binding at 1 µM,FGFR3,75%
same,remaining binding at 1 µM,EGFR(L861Q),100%
same,remaining binding at 1 µM,DMPK,62%
same,inhibition at 10 µM,"Glutamate, NMDA, Glycine",12%
same,remaining binding at 0.1 µM,VRK2,97%
same,remaining binding at 1 µM,ALK(C1156Y),71%
same,remaining binding at 1 µM,MKK7,100%
same,remaining binding at 1 µM,CDC2L2,78%
same,remaining binding at 1 µM,JNK1,82%
same,inhibition at 10 µM,[3],13%
same,inhibition at 10 µM,[4],3%
same,remaining binding at 1 µM,GRK3,100%
same,remaining binding at 1 µM,ERK3,84%
same,remaining binding at 0.1 µM,[5],100%
same,remaining binding at 0.1 µM,SLK,91%
same,remaining binding at 1 µM,MEK5,52%
same,remaining binding at 0.1 µM,TAOK3,88%
same,remaining binding at 1 µM,ACVR1,64%
same,remaining binding at 0.1 µM,ULK1,93%
same,remaining binding at 1 µM,LKB1,77%
same,remaining binding at 1 µM,ACVR2B,65%
same,remaining binding at 1 µM,FLT3(N841I),54%
same,remaining binding at 1 µM,DAPK2,89%
same,remaining binding at 0.1 µM,SRPK3,100%
same,inhibition at 10 µM,[6],56%
same,remaining binding at 1 µM,CAMK1,78%
same,remaining binding at 0.1 µM,[7],100%
same,remaining binding at 1 µM,ADCK3,97%
same,remaining binding at 1 µM,FGFR2,70%
same,remaining binding at 1 µM,HPK1,85%
same,inhibition at 10 µM,Cannabinoid CB1,16%
